Test results published in ChEMBL document CHEMBL3580621, “The Hippo Pathway and YAP/TAZ-TEAD Protein-Protein Interaction as Targets for Regenerative Medicine and Cancer Treatment” (J Med Chem, 2015).

Species on record: Homo sapiens
Assay: Inhibition of HA-tagged YAP/Gal4-tagged TEAD (unknown origin) interaction at 2.5 uM by Coimmunoprecipitation assay

- inhibition: > 50%
Sequence: VERTEPORFIN
